In series [1] the test system is male mice (ddY strains), reserpine ulcer. As to the kind of experiment: Anti-reserpine ulcer activity. The format is in vivo. The following applies: Mus musculus, ip, 18 h, i.p., 5 mice, reserpine 10 mg/kg s.c., read-out: Inhibitory Ratio (ulcer area). Here is the method:
The test was carried out in accordance with the method described by C. Blackmann, D. S. Campion and F. N. Fastier in British Journal of Pharmacology and Chemotherapy, vol. 14, 112 (1959), which is as follows:
The test compound was intraperitoneally administered to male mice (ddY strains, body weight: 28-33 g), and, 30 minutes later, reserpine was subcutaneously administered in the dose of 10 mg/kg. After 18 hours from the reserpine administration, the animal was sacrificed, and the stomach was isolated. This stomach was inflated with 2 ml of 0.5% formalin and was fixed. Then, the stomach was opened by cutting along the greater curvature, and the ulcer area*^(1) was measured with a stereoscopic microscope. The ulcer areas of the treated group and the control group were compared, and the inhibitory ratios were calculated.
*(1) ulcer area (mm^2): sum of each ulcer area (longitude×latitude).
The anti-reserpine ulcer activity shown when the test compound was intraperitoneally administered is set out in Table 1.

The test system of series [2] is male rats (Donryu strain), cysteamine duodenal ulcer. As to the kind of experiment: Anti-cysteamine duodenal ulcer activity. In kind it is in vivo, rat. The following applies: for Duodenal ulcer index: score 0-5, control 2.45. Here is the method:
The test was carried out in accordance with the method described by H. Selye and S. Szabo in Nature, vol. 244, 458 (1973), which is as follows. Male rats (Donryu strain, body weight: 200-220 g) had been fasted overnight, were orally treated with 300 mg/kg of cysteamine to induce duodenal ulcer. The test compounds were orally administered four times, that is, for two days prior to, immediately before and on the day next to the treatment of cysteamine. The animals were killed two days after the treatment of cysteamine, and the duodenal ulcer index*^(3) was determined. The duodenal ulcer indices of the treated group and the control group were compared, and the inhibitory ratios were calculated. |^(*3) Duodenal ulcer index: Ulcer of each animal was |scored according to the |following criteria. |0: no lesion |1: hemorrhagic spots |2: product of longitudinal and latitudinal diameters |(S) ≤ 16 mm^2 |3: product of longitudinal and latitudinal diameters |(S) ≤ 16 mm^2, 16 < (s) ≤ 25 |4: product of longitudinal and latitudinal diameters |(S) ≤ 16 mm^2, (s) > 25 mm^2 |5: perforated ulcer The anti-cysteamine duodenal ulcer activity shown when the compound was orally administered is set out in Table 3.

The subject of series [3] is male rats (Donryu strain), stress ulcer. As to the kind of experiment: Anti-stress ulcer activity (restraint-immersion). In kind it is in vivo, rat. Conditions: for Ulcer index: control 22.3. Here is the method: The test was carried out in accordance with the method described by K. takagi and S. Okabe in The Japanese Journal of Pharmacology, vol. 18, 9 (1968), which is as follows:
Male rats (Donryu strain, body weight: 200-220 g) were placed under restraint in a stress cage and immersed vertically in the water bath kept at 23°±1° C. to the height of the xiphoid of the animal. After restraint-immersion for 8 hours, the animals were sacrificed. The stomach was fixed with formalin and measured in its ulcer index *^(2). The ulcer indices of the treated group and the control group were compared, and the inhibitory ratios were calculated. The test compound was orally administered for 3 days prior to and immediately before the restraint-immersion.
*(2) ulcer index (mm): sum of the length of each linear ulcer.
The anti-stress ulcer activity shown when the test compound was orally administered is set out in Table 2.

The next series concerns Donryu strain male rat. As to the kind of experiment: Acute toxicity, Donryu strain male rat. In kind it is in vivo. Conditions: 1,000 mg/kg orally given. An excerpt:
(§1) The acute toxicity of the compound A is set out in Table 4.

The next series has as its system ddY strain male mouse. As to the kind of experiment: Acute toxicity, ddY strain male mouse. The format is in vivo. Conditions: 5,000 mg/kg orally given.
Description: as §1

The conditions of series [4]: Arch. int. Pharmacodyn., 1964, 147, 113; cited from earlier work.
[5] abbreviates: 300 mg/kg/day × 4, p.o., Compound A marked *significant inhibition, probability less than 0.05.
[6] abbreviates: 100 mg/kg/day × 4, p.o., Compound A marked *significant inhibition, probability less than 0.05.

In the case of `CC(C)=CCC/C(C)=C/CCC(=CCCC(C)=CCO)CO` [Compound C, (E,Z,E), (E,E,E), (Z,Z,E) & (Z,E,E)7-hydroxymethyl-3,11,15-trimethyl-2,6,10,14-hexadecatetraen-1-ol], in series [1], the inhibition in vivo at 100 mg/kg is 59%.

Turning to `CC(C)=CCC/C(C)=C/CCC(=CCC/C(C)=C/CO)CO` [Compound B, (E,Z,E) & (E,E,E)7-hydroxymethyl-3,11,15-trimethyl-2,6,10,14-hexadecatetraen-1-ol], the inhibition in vivo at 100 mg/kg in series [1] is 65%.

Consider `CC(C)=CCCC(=CCCC(C)=CCC/C(C)=C/CO)CO` [Compound L, (E,E,E), (E,Z,E), (E,E,Z) & (E,Z,Z)11-hydroxymethyl-3,7,15-trimethyl-2,6,10,14-hexadecatetraen-1-ol], for which the inhibition in vivo at 100 mg/kg in series [1] amounted to 55.3%.

Take `CC(C)=CCC/C(C)=C\CCC(=CCC/C(C)=C/CO)CO` [Compound K, (E,Z,Z) & (E,E,Z)7-hydroxymethyl-3,11,15-trimethyl-2,6,10,14-hexadecatetraen-1-ol]: the inhibition in vivo at 100 mg/kg in series [1] worked out at 58.7%.

Regarding `C/C(=C\CC/C(C)=C/CCC(=CCC/C(C)=C/CO)CO)CO` [Compound N, 7,15-Dihydroxymethyl-3,11-dimethyl-2,6,10,14-hexadecatetraen-1-ol], in series [1] (105 mg/kg), the inhibition in vivo at 105 mg/kg stood at 64.5%.

Turning to `NC(=O)CC[C@H](N)C(=O)O` [L-Glutamine, reference compound], in series [2] (1000 mg/kg/day × 4, p.o.), the “Inhibitory ratio (duodenal ulcer index)” value is listed as 31 and the Duodenal ulcer index is on record as 1.70.

With `COC/C=C(\C)CC/C=C(/CC/C=C(\C)CCC=C(C)C)COC` [Compound G, (E,Z,E)7-hydroxymethyl-3,11,15-trimethyl-2,6,10,14-hexadecatetraen-1-ol dimethyl ether], the inhibition in vivo at 109 mg/kg in series [1] (109 mg/kg) turned out to be 45%.

In the case of `CC(C)=CCC/C(C)=C/CCC(C)=CCCC(=CCC/C(C)=C/COC(=O)c1ccccc1)COC(=O)c1ccccc1` [Compound Q, 7-Hydroxymethyl-3,11,15,19-tetramethyl-2,6,10,14,18-eicosapentaen-1-ol dibenzoate], the inhibition in vivo at 193 mg/kg in series [1] (193 mg/kg) came to 56.2%.

As to `CC(=O)OC/C=C(\C)CCC=C(CCC=C(C)CC/C=C(\C)CCC=C(C)C)COC(C)=O` [Compound P, 7-Hydroxymethyl-3,11,15,19-tetramethyl-2,6,10,14,18-eicosapentaen-1-ol diacetate], in series [1] (150 mg/kg), the inhibition in vivo at 150 mg/kg was found to be 45.7%.

For `CC(C)=CCC/C(C)=C/CC/C(=C/CC/C(C)=C/CO)CO` [Compound A, (E,Z,E)7-hydroxymethyl-3,11,15-trimethyl-2,6,10,14-hexadecatetraen-1-ol], the “Inhibitory ratio (duodenal ulcer index)” value amounted to 18 in series [2] (100 mg/kg/day × 4, p.o.) and 34 in series [2] (setting [5]). Also, the Duodenal ulcer index in series [2] (100 mg/kg/day × 4, p.o.) was found to be 2.00; in series [2] (300 mg/kg/day × 4, p.o.), 1.56. For the same compound, the “Inhibitory ratio (ulcer index)” value in series [3] (10 mg/kg/day × 4, p.o.) is 17; in series [3] (30 mg/kg/day × 4, p.o., *significant inhibition, probability less than 0.05) it was 37; in series [3] (setting [6]) it was 43. The Ulcer index in series [3] (10 mg/kg/day × 4, p.o.) turned out to be 18.5 mm; in series [3] (30 mg/kg/day × 4, p.o.), 13.8 mm; in series [3] (100 mg/kg/day × 4, p.o.) it was 12.7 mm. Besides, the Death/Survival in the series with Donryu strain male rat and in the series on ddY strain male mouse was 0/5 in each case. Moreover, the inhibition in vivo at 100 mg/kg in series [1] was found to be 68.4%.

Turning to `CCCCCCCCCCCC(=O)OC/C=C(\C)CC/C=C(/CC/C=C(\C)CCC=C(C)C)COC(=O)CCCCCCCCCCC` [Compound F, (E,Z,E)7-hydroxymethyl-3,11,15-trimethyl-2,6,10,14-hexadecatetraen-1-ol dilaurate], the inhibition in vivo at 220 mg/kg in series [1] (220 mg/kg) amounted to 63.3%.

In the case of `CC(C)=CCC/C(C)=C/CC/C(=C/CC/C(C)=C/COC(=O)c1ccccc1)COC(=O)c1ccccc1` [Compound E, (E,Z,E)7-hydroxymethyl-3,11,15-trimethyl-2,6,10,14-hexadecatetraen-1-ol dibenzoate], in series [1] (171 mg/kg), the inhibition in vivo at 171 mg/kg was found to be 64.5%.

Consider `CC(C)=CCC/C(C)=C/CC/C(=C\CC/C(C)=C/CO)CO` [Compound H, (E,E,E)7-hydroxymethyl-3,11,15-trimethyl-2,6,10,14-hexadecatetraen-1-ol], for which the inhibition in vivo at 100 mg/kg in series [1] stood at 57%.

Regarding `CC(=O)OC/C=C(\C)CC/C=C(\CC/C=C(\C)CCC=C(C)C)COC(C)=O` [Compound I, (E,E,E)7-hydroxymethyl-3,11,15-trimethyl-2,6,10,14-hexadecatetraen-1-ol diacetate], the inhibition in vivo at 127 mg/kg in series [1] was determined as 64.5%.

`CC(C)=CCCC(C)=CCCC(C)=CCCC(=O)OC/C=C(\C)CCC=C(C)C` [Gefarnate, geranyl farnesylacetate, reference compound]: the anti-ulcer activity entry in series [4] is “has an anti-ulcer activity”. For the same compound, the “Inhibitory ratio (duodenal ulcer index)” value in series [2] (setting [5]) was found to be 10. This compound showed a Duodenal ulcer index in series [2] (300 mg/kg/day × 4, p.o.) of 2.20. Moreover, the “Inhibitory ratio (ulcer index)” value is listed as -13 in series [3] (setting [6]) and -57 in series [3] (300 mg/kg/day × 4, p.o.). The Ulcer index in series [3] (100 mg/kg/day × 4, p.o.) was 25.3 mm; in series [3] (300 mg/kg/day × 4, p.o.) it was 35.0 mm. The inhibition in vivo at 100 mg/kg in series [1] was found to be 10%.

Regarding `CC(C)=CCC/C(C)=C/CC/C(=C\CC/C(C)=C\CO)CO` [Compound J, (Z,E,E)7-hydroxymethyl-3,11,15-trimethyl-2,6,10,14-hexadecatetraen-1-ol], the inhibition in vivo at 100 mg/kg in series [1] was 49.4%.

`CC(=O)OC/C=C(\C)CC/C=C(/CC/C=C(\C)CCC=C(C)C)COC(C)=O` [Compound D, (E,Z,E)7-hydroxymethyl-3,11,15-trimethyl-2,6,10,14-hexadecatetraen-1-ol diacetate]: in series [1], the inhibition in vivo at 127 mg/kg is 54.2%.

With `CC(C)=CCCC(=CCC/C(C)=C/CO)CO` [Compound M, (E,Z) & (E,E)7-hydroxymethyl-3,11-dimethyl-2,6,10-dodecatrien-1-ol], the inhibition in vivo at 77.8 mg/kg in series [1] (77.8 mg/kg) is 60.1%.

With `CC(C)=CCC/C(C)=C/CCC(C)=CCCC(=CCC/C(C)=C/CO)CO` [Compound O, 7-Hydroxymethyl-3,11,15,19-tetramethyl-2,6,10,14,18-eicosapentaen-1-ol], the inhibition in vivo at 122 mg/kg in series [1] (122 mg/kg) worked out at 74.2%.

The values are drawn from patent US4260551A, “Polyprenyl derivatives” (Sankyo Company Limited, priority 1979, dated 1981).
